Measurements published in patent US12403143B2, “Pharmaceutical composition for treating functional psychiatric disorders” (OBSCHESTVO S OGRANICHENNOI OTVETSTVENNOSTYU “VALENTEK”, priority 2016, dated 2025).
Where two headings read alike, the source gives them in different places.

Experiments:
[1] = target: T1, M1 receptor (Homo sapiens, UniProt P11229); test: M1 muscarinic receptor activation, Fluo-4 NW Ca2+ fluorescence; assay type: cell-based; settings: FIG. 6
T1 sequence (P11229 1-460): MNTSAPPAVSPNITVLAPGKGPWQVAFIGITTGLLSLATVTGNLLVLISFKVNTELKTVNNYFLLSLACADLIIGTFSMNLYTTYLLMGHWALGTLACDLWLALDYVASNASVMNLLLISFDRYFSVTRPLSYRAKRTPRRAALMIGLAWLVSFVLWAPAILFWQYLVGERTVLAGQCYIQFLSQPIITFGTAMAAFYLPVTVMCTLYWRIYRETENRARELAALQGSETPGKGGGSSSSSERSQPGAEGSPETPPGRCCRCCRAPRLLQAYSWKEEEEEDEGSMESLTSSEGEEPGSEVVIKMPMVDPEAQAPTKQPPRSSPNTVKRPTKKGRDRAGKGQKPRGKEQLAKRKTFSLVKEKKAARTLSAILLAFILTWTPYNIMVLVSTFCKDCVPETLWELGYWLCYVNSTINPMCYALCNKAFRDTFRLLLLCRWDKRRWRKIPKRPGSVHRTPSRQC
Procedure: The activity was determined according to the fluorescence of Fluo-4 NW indicator introduced into cells, induced by a change in Ca^2+ ion concentration in the cytosol.

[2] = system: rats; test: Sub-chronic toxicity, blood composition / neutrophil kinetics; assay type: in vivo; settings: intragastric 5 mg/kg daily for 28 days
Procedure: The neutrophil kinetics were studied within comparative tests of sub-chronic toxicity. Studies were conducted in rats upon intragastric administration of substances at a dose of 5 mg/kg. The test substances were administered daily for 28 days. Each experimental group composed of 10 animals of each sex.

[3] = system: mice; test: Amphetamine-induced locomotion inhibition (ALI), model of bipolar disorder; assay type: in vivo
Source text: The ability of drugs to inhibit amphetamine-induced locomotor activity (amphetamine-induced locomotion inhibition, ALI) is a consequence of their blocking effect on dopamine receptors. Amphetamine causes a disruption of the reuptake of monoamine neurotransmitters and their accumulation in the intersynaptic space; blockade of dopamine receptors by antagonists neutralizes the excessive stimulation of dopamine signaling pathways. ALI is the basic test based on the dopamine model of bipolar disorder, and allows to evaluate the ability of drug candidates to bind to brain dopamine receptors in vivo.
[…]. After that, 3 mg/kg of d-amphetamine were administered intraperitoneally to the animals and the record of the activity was resumed. The distance (in cm) travelled by the animal in the first 60 minutes after administration of antipsychotic drugs and the distance travelled in the next hour after d-amphetamine administration were estimated.

[4] = Maximum tolerated dose by dose escalation; assay type: in vivo, miniature pigs; settings: pig, in vivo, miniature pigs, dose escalation
Procedure: (§1) To assess the safety of halogen derivatives of clozapine, the maximum tolerated dose (MTD) for miniature pigs was determined.
(§2) Initially, the pharmaceutical composition was administered at a dose of 0.53 mg/kg for 7 days. Then, on the 8th day, the administered dose of the pharmaceutical composition was increased to 1 mg/kg. After that, the dose was increased by 0.5 mg/kg every 1st, 3rd and 5th days of the seven-day cycle until an observable intoxication was noted.

[5] = system: miniature pigs; test: Maximum tolerated dose by dose escalation; assay type: in vivo; settings: extrapolated from miniature pigs
Procedure: as §1, §2

[6] = target: H1 receptor (Homo sapiens, UniProt P35367); test: H1 receptor functional activity, Fluo-4 NW Ca2+ fluorescence
Sequence of H1 receptor (P35367 whole entry): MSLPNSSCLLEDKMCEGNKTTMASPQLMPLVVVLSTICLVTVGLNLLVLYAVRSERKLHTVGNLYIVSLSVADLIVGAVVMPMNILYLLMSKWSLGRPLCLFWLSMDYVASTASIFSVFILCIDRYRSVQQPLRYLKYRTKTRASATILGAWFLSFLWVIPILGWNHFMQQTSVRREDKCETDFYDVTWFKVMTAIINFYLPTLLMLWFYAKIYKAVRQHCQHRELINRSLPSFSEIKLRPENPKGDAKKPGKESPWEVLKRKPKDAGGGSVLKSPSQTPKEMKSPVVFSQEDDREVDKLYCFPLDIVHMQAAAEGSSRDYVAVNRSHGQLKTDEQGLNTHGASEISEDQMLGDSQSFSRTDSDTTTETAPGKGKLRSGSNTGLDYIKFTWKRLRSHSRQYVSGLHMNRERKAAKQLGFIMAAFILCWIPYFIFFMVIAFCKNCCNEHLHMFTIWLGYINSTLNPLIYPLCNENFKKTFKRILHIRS
Procedure: The functional activity against H1 receptor was determined according to the fluorescence of Fluo-4 NW indicator introduced into cells, induced by a change in Ca^2+ ion concentration in the cytosol.

[7] = Metabolism and tissue distribution of fluoroclozapine after single oral administration; settings: rats, single oral 10 mg/kg fluoroclozapine
[8] = target: T2, D4.4 receptor (Homo sapiens, UniProt P21917); test: D4 receptor functional antagonism, cAMP level by fluorescence; assay type: cell-based; settings: ratio of binding constants
T2 sequence (P21917 1-419): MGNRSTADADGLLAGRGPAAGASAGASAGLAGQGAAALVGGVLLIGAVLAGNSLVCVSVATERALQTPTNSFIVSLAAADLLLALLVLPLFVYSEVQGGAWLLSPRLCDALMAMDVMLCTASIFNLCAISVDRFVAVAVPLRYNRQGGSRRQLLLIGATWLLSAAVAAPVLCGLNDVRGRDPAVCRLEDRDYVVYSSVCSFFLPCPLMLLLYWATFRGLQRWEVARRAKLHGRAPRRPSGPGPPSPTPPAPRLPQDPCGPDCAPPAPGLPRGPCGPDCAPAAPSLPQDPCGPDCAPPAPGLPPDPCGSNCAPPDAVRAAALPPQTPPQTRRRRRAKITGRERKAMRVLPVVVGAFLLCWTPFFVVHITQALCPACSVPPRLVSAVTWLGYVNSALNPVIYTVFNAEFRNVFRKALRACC
Procedure: Response for cells expressing D2 receptors was determined as the change in cell conductance caused by the redistribution of intracellular calcium. For D4 receptor, the response criterion was the level of the secondary messenger, cAMP, determined by fluorescence after lysis of the cell expressing the receptor.

[9] = Leucht et al., Lancet 2013; cited from earlier work
[10] = target: 5HT2A receptor (Homo sapiens, UniProt P28223); test: 5HT2A receptor functional antagonism, cAMP level by fluorescence; assay type: cell-based
Sequence of 5HT2A receptor (P28223 whole entry): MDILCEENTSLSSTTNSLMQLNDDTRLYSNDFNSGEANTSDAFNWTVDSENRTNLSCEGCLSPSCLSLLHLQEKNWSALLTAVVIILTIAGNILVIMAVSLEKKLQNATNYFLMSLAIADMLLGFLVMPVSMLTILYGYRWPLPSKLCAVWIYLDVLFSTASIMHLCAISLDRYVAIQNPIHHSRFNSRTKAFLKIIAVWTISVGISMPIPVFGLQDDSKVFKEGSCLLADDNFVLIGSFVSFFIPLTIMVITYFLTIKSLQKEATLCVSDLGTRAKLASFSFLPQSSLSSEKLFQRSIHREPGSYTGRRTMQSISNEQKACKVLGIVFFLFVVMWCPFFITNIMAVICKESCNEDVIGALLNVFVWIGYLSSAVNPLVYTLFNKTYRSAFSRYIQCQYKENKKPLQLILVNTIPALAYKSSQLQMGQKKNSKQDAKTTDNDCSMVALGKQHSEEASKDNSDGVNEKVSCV
Procedure: Response for cells expressing D2 receptors was determined by the change in cell conductance caused by the redistribution of intracellular calcium. For 5HT2A receptor, the response criterion was the level of the secondary messenger, cAMP, determined by fluorescence after lysis of the cell expressing the receptor.

[11] = target: T3, muscarinic M4 receptor (Homo sapiens, UniProt P08173); test: M4 muscarinic receptor functional experiments, cAMP level; assay type: cell-based
T3 sequence (P08173 1-479): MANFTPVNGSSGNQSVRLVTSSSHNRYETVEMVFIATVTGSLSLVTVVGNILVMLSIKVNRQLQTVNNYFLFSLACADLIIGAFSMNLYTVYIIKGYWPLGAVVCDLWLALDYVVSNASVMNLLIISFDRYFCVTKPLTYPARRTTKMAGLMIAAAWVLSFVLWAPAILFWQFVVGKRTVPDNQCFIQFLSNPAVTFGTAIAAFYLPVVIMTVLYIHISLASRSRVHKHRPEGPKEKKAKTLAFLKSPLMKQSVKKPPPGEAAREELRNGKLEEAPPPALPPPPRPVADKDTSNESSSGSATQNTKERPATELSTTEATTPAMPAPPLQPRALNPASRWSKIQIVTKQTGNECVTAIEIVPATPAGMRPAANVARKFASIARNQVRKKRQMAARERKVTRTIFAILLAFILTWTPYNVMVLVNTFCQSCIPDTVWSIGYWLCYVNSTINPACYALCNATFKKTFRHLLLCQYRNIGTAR
Procedure: The side effect of M4 muscarinic receptor agonists is intense salivation (sialorrhea). […] Curves of response dependence on the concentration of the compound for the receptor were built; the response criterion was the level of the secondary messenger—cAMP, which is determined by fluorescence after cell lysis expressing the receptor.

[12] = system: CF-1 mice; test: Sedation: total distance travelled after oral administration; assay type: in vivo
Source text: The results of the in vitro experiments given in Example 4 have been confirmed by the studies of sedation.

[13] = female, read-out: MTD (females)

| SMILES | effect on M1 receptors [1] | Stab neutrophils [2] | MTD [4, 13] | MTD ([4]; male, read-out: MTD (males)) | corresponding MTD for a human [5] | Therapeutic window width (Kb, H1/Kb, 5HT2A) [6] | increase of the risk of sedation [9] | other results |
| --- | --- | --- | --- | --- | --- | --- | --- | --- |
| CN1CCN(C2=Nc3cc(Cl)c(F)cc3Nc3ccccc32)CC1 [Fluoroclozapine, 11-(4-methylpiperazine-1-yl)-7-fluoro-8-chloro-5H-dibenzo[b,e][1,4] diazepine] | virtually no effect on M1 receptors | 3.2 ± 0.4% | 6 mg/kg | 5 mg/kg | 450 mg per day | 0.63 |  | minimum effective dose designed for patient ([3]; depending on patient's body weight): 20-35 mg per day; minimum effective dose designed for patient ([3]; extrapolated from ALI experiment): 0.5 mg/kg; concentrations for inhibition of H1 compared with inhibition of 5HT2A (times lower) [6]: approximately equal concentrations; concentrations of fluoroclozapine and its metabolite desmethylfluoroclozapine in the brain [7]: comparable; metabolism [7]: metabolized to desmethylfluoroclozapine |
| OCCOCCN1CCN(C2=Nc3ccccc3Sc3ccccc32)CC1 [quetiapine] |  |  |  |  |  |  | 3.7 times | Therapeutic window width (Kb, D2/Kb, D4) [8]: 0.11 |
| Clc1ccc2c(c1)N=C(N1CCNCC1)c1ccccc1N2 [Desmethylclozapine, desmethylclozapine, reference compound] |  |  |  |  |  | 0.24 |  |  |
| Fc1cc2c(cc1Cl)N=C(N1CCNCC1)c1ccccc1N2 [Desmethylfluoroclozapine, 11-(piperazine-1-yl)-7-fluoro-8-chloro-5H-dibenzo[b,e][1,4]diazepine] | is an agonist, and causes a significant response in the therapeutic drug concentration window | 4.2 ± 0.4% |  |  |  |  |  | Kb ([10]; binding constant determined from IC50, antagonism setup): 0.016 µM; Therapeutic window width (Kb, D2/Kb, 5HT2A) ([10]; ratio of binding constants): 34; activating concentration, times higher than that of clozapine [11]: 290 times; activating concentration, times higher than that of desmethylclozapine [11]: 30 times; motion activity ([12]; CF-1 mice, oral 10 mg/kg): insignificant decrease in motion activity; Therapeutic window width (Kb, H1/Kb, 5HT2A) ([6]; ratio of binding constants): 0.93 |
| CN1CCN(C2=Nc3cc(Cl)ccc3Nc3ccccc32)CC1 [Clozapine, clozapine, reference compound] |  | 4.6 ± 0.7 % | 4.5 mg/kg | 3 mg/kg | 270 mg per day |  | 8.8 times | total distance travelled / sedation ([12]; mouse, in vivo): significantly reduced; number of circulating neutrophils in the blood versus control group [2]: significant increase |
